From patent publication US20260021046A1, “LIPID NANOPARTICLE AND PHARMACEUTICAL COMPOSITION” (NATIONAL UNIVERSITY CORPORATION HOKKAIDO UNIVERSITY, priority 2022, published 2026) come the findings set out here.

For data set [1], the system named is activated hepatic stellate cell line LX-2. As to the kind of experiment: EGFP mRNA delivery and transfection screening by FACS. The class given is cell-based. The note with it: LX-2 cells; EGFP mRNA lipid nanoparticles, 250 ng mRNA per well. The method, then: Fourteen types of lipid nanoparticles prepared were screened with activated hepatic stellate cell line LX-2 (Merck (Germany) and hepatocyte line FL83B (ATCC, USA).
Twenty-four hours prior to the experiment, cells were seeded in 6-well plates at 1×10^5 cells/well and incubated at 37° C. The medium was aspirated and the cells were washed with (−) PBS and then treated with lipid nanoparticles encapsulating EGFP mRNA (TriLink BioTechnologies, USA) in 1.5 ml of growth medium for 24 hours. The amount of mRNA per well was 250 ng. Cells were then washed with (−) PBS and incubated in fresh medium for an additional 21 hours. The median fluorescence intensity of EGFP and the percentage of transfected cells were evaluated by fluorescence activated cell sorting (FACS) using a flow cytometer (Cytoflex, Beckman Coulter, USA).
In general terms: Flow cytometry measures light scatter and fluorescence of single cells or particles in a stream.

Data set [2] is described as follows: Apparent pKa of lipid nanoparticles using TNS. As to conditions: lipid nanoparticles encapsulating mRNA prepared with the lipid, 37° C.
Description: The apparent acid dissociation constant pKa of the lipid membrane of a lipid nanoparticle is measured in a buffer at 37° C. using 6-p-toluidino-2-naphthalenesulfonic acid (TNS) (see Examples).
The apparent pKa of the lipid nanoparticles was also measured using 6-p-toluidino-2-naphthalenesulfonic acid (TNS) (see NPL 14). Specifically, in each well of a 96-well plate, lipid (0.5 mM) of the lipid nanoparticles and TNS (0.6 mM) were added to 200 μL of a buffer solution and mixed. The buffer solution was 20 mM citrate buffer (pH3.50 to 5.50), 20 mM sodium phosphate buffer (pH6.00 to 8.00), or 20 mM Tris-HCl buffer (pH8.00 to 9.00), and each buffer solution contained 150 mM NaCl. At this time, the final concentration of lipid was adjusted to 30 µM and the final concentration of TNS was adjusted to 6 μM. Fluorescence (excitation wavelength 321 nm, fluorescence wavelength 447 nm) was then measured at 37° C. using a plate reader (Enspire 2300 multilabel reader, Perkin Elmer). The pKa was defined as the pH value showing 50% of the maximum fluorescence intensity. • [NPL 14]
A short description of data set [3]: Average particle size, PDI, zeta potential (dynamic light scattering) and RNA encapsulation efficiency (RiboGreen) of lipid nanoparticles. The class given is physicochemical. As to conditions: CL15H6 lipid nanoparticles with SMO-siRNA. On the procedure: The average particle size, particle size distribution, and zeta potential of the lipid nanoparticles were measured using a Zetasizer Nano ZS (Malvern Instruments Ltd, UK) by dynamic light scattering and the form of lipid nanoparticle was measured using a transmission electron-microscope as described in NPL 12. The efficiency of mRNA encapsulation was estimated by RiboGreen fluorometry as described in NPL 13. Although the respective values vary depending on the type of pH-sensitive cationic lipid, the composition of the lipids constituting the lipid nanoparticles, the preparation conditions of the lipid nanoparticles, and the like, the average particle size of the lipid nanoparticles was in the range of 80 to 350 nm, the PDI was in the range of 0.05 to 0.4, the zeta potential was in the range of −16 to +5 mV, and the efficiency of mRNA encapsulation was 75 to 95%. • [NPL 12] Mahmoud A. Younis, et al., “A Multifunctional Lipid-Based Nanodevice for the Highly Specific Codelivery of Sorafenib and Midkine siRNA to Hepatic Cancer Cells”, Molecular Pharmaceutics, Vol. 16, pp. 4031-4044 • [NPL 13] Mahmoud M. Abd Elwakil, et al., “Engineered &-decalactone lipomers bypass the liver to selectively in vivo deliver mRNA to the lungs without targeting ligands”, Materials Horizons, Vol. 8, pp. 2251-2259
The average particle size, particle size distribution, and zeta potential of the lipid nanoparticles were measured in the same manner as in Example 1 to estimate the efficiency of SMO-siRNA encapsulation. The relationship between the flow rate ratio of the aqueous phase to the organic phase, the average particle size, particle size distribution, zeta potential, and SMO-siRNA encapsulation efficiency of the lipid nanoparticles prepared at the same flow rate ratio when CL15H6 was used as the pH-sensitive cationic lipid is shown in Table 3 below. In the subsequent experiments, lipid nanoparticles were prepared at a ratio of 4:1 (aqueous phase: organic phase), which provided the highest encapsulation efficiency, the smallest average particle size, and the smallest PDI.

In another data set the test system is SMO mRNA. The data set is described as follows: In vivo SMO mRNA knockdown in liver tissue by qRT-PCR. Details: species or system mice. The note with it: 24 hours. The method, then: TAA-induced liver fibrosis model mice were prepared in the same manner as in Example 1, and SMO-siRNA-encapsulated lipid nanoparticles were intravenously administered to the mice via the tail vein so that the amount of RNA per kg of body weight was 0.5 mg/kg. 24 hours after the administration, the mouse livers were collected. The ratio of the amount of SMO mRNA to the amount of GAPDH mRNA in the liver tissue was confirmed by qRT-PCR. The SMO gene is expressed only in hepatic stellate cells in the liver.
Next, a lipid composition containing CL15H6 and SMO-siRNA were mixed in different ratios to prepare lipid nanoparticles with different nitrogen/phosphate (N/P) ratios. Specifically, lipid nanoparticles were prepared with N/P ratios of 0.5, 1, 2, 4, 8, 12, 16, and 20. The prepared lipid nanoparticles were intravenously administered to mice with liver fibrosis so that the amount of RNA per kg of body weight was 0.5 mg/kg, and the ratio of the amount of SMO mRNA to the amount of GAPDH mRNA in the liver tissue was confirmed 24 hours later.
Next, the relationship between the dosage amount of SMO-siRNA and the ratio of the amount of SMO mRNA to the amount of GAPDH mRNA in the liver tissue was examined. For comparison, the relationship between the dosage amount of control siRNA (siCtrl) and the ratio of SMO mRNA to GAPDH mRNA in hepatic stellate cells was also examined.
Lipid nanoparticles encapsulating a mixture of the above SMO-siRNA and TGFβ1-siRNA at a ratio of 1:1 were prepared by using CL15H6, the above SMO-siRNA (SEQ ID NOs: 1 and 2) targeting the mRNA of the SMO gene and the TGFβ1-siRNA (SEQ ID NOS: 3 and 4) targeting the mRNA of the TGFβ1 gene and having the sequence shown in Table 4 below. The prepared lipid nanoparticles were intravenously administered to mice with liver fibrosis so that each of the amounts of SMO-siRNA and of TGFβ1-siRNA per kg of body weight was 0.25 mg/kg, and 24 hours later, the ratios of the amounts of SMO mRNA and of TGFβ1 mRNA to the amount of GAPDH mRNA in the liver tissue was confirmed.

Where [4] appears, read: aqueous phase:organic phase 2:1.
The mark [5] stands for this setting: aqueous phase:organic phase 3:1.
The mark [6] stands for this setting: aqueous phase:organic phase 4:1.
[7] abbreviates: aqueous phase:organic phase 5:1.
[8] abbreviates: aqueous phase:organic phase 9:1.

SMILES strings stand for the structures.

On to `CCCCCCCCCCCCCCCC(=O)OCCCCCCC(O)(CCCCCCOC(=O)CCCCCCCCCCCCCCC)CCCCN(C)C` [CL1D6, 7-(4-(dimethylamino)butyl)-7-hydroxytridecane-1,13-diyl dipalmitate], for which the “mRNA delivery efficiency (median fluorescence intensity of EGFP)” value (shortened to “mRNA delivery efficiency”) in data set [1] is on record as “high”.

For `CCCCCCCC/C=C\CCCCCCCC(=O)OCCCCCCC(O)(CCCCCCOC(=O)CCCCCCC/C=C\CCCCCCCC)CCCCN(C)C` [CL1H6, 7-(4-(dimethylamino)butyl)-7-hydroxytridecane-1,13-diyl dioleate], the “mRNA delivery efficiency” value in data set [1] is “high”.

As to `CCCCCCCCC(CCCCCC)C(=O)OCCCCCCC(O)(CCCCCCOC(=O)C(CCCCCC)CCCCCCCC)CCCCN(CCC)CCC` (stereo not shown) [CL4F6], in data set [2], the “Apparent pKa” value is on record as 6.00.

With `CCCCCCCC/C=C\CCCCCCCC(=O)OCCCCCCC(O)(CCCCCCOC(=O)CCCCCCC/C=C\CCCCCCCC)CCCCN(CCC)CCC` [CL4H6], the “Apparent pKa” value in data set [2] amounted to 6.25.

For `CCCCCCCCC(CCCCCC)C(=O)OCCCCCCC(O)(CCCCCCOC(=O)C(CCCCCC)CCCCCCCC)CCCCOC(=O)C1CCN(C)CC1` (stereo not shown) [CL15F6, 7-hydroxy-7-(4-((1-methylpiperidine-4-carbonyl)oxy)butyl)tridecane-1,13-diyl bis(2-hexyldecanoate)], the “mRNA delivery efficiency” value in data set [1] is “high”.

In the case of `CCCCCCCC/C=C\CCCCCCCC(=O)OCCCCCCC(O)(CCCCCCOC(=O)CCCCCCC/C=C\CCCCCCCC)CCCCOC(=O)C1CCN(C)CC1` [CL15H6, 7-hydroxy-7-(4-((1-methylpiperidine-4-carbonyl)oxy)butyl)tridecane-1,13-diyl dioleate], the Average particle size was determined as 135.72 nm in data set [3] (setting [4]); 72.5 nm in data set [3] (setting [5]); 53.45 nm in data set [3] (setting [6]); 57.12 nm in data set [3] (setting [7]); 58.53 nm in data set [3] (setting [8]). Further, the Encapsulation efficiency in data set [3] (setting [4]) stood at 66.12%; in data set [3] (setting [5]), 92.33%; in data set [3] (setting [6]), 94.06%; in data set [3] (setting [7]), 89.19%; in data set [3] (setting [8]), 75.55%. For the same compound, the PDI worked out at 0.280 in data set [3] (setting [4]); 0.192 in data set [3] (setting [5]); 0.093 in data set [3] (setting [6]); 0.169 in data set [3] (setting [7]); 0.217 in data set [3] (setting [8]). Besides, the Zeta potential in data set [3] (setting [4]) is listed as −6.81 mV; in data set [3] (setting [5]) it was −3.75 mV; in data set [3] (setting [6]), −3.35 mV; in data set [3] (setting [7]), −5.08 mV; in data set [3] (setting [8]), −8.2 mV. Further, the “mRNA delivery efficiency” value in data set [1] is on record as “high”. Also, the “amount of SMO mRNA (ratio to GAPDH mRNA) in liver tissue” value is on record as “lowest” in the data set with SMO mRNA (CL15H6 SMO-siRNA lipid nanoparticles, 0.5 mg/kg iv, N/P ratio 4 among 0.5 to 20) and “significantly reduced” in the data set with SMO mRNA (SMO-siRNA lipid nanoparticles, 0.5 mg/kg RNA iv, versus HEPES buffer control).
